Data reported in publication PMC11527162, “Mutational analysis of Phanerochaete chrysosporium´s purine transporter” (PLOS ONE, 2024).

What was measured:
PhZ [1] = biological target: T1, PhZ (Phanerodontia chrysosporium, UniProt A0A1B2TT73, L124M); assay: competition with [3H]-hypoxanthine uptake in germinating A. nidulans conidia; type: cell-based; details: 0.2 uM [3H]-hypoxanthine, 37 °C
T1 construct: full length, 578 amino acids, from cDNA; C-terminal GFP fusion kept; expressed at the azgA locus of Aspergillus nidulans deltaZAC (azgA, uapA, uapC deleted)

PhZ [2] = biological target: T2, PhZ (Phanerodontia chrysosporium, UniProt A0A1B2TT73, A418V); assay: as above; type: cell-based; details: 0.2 uM [3H]-hypoxanthine, 37 °C
T2 construct: full length, 578 amino acids, from cDNA; C-terminal GFP fusion kept; expressed at the azgA locus of Aspergillus nidulans deltaZAC (azgA, uapA, uapC deleted)

[3] = substrate: O=c1[nH]cnc2nc[nH]c12; assay: inhibition of [3H]-hypoxanthine uptake by unlabelled hypoxanthine in germinating A. nidulans conidia; type: cell-based, Phanerodontia chrysosporium; details: 0.2 uM [3H]-hypoxanthine, 37 °C, minimal medium with nitrate, Km/i taken as equal to IC50 of unlabelled hypoxanthine
[4] = substrate: O=c1[nH]cnc2nc[nH]c12; assay: as above; type: cell-based, Phanerodontia chrysosporium; details: 0.2 uM [3H]-hypoxanthine, 37 °C, minimal medium with nitrate, Km/i taken as equal to IC50 of unlabelled hypoxanthine; remark: listed apart in the source
Excerpt: inhibition of [3H]-hypoxanthine uptake by unlabelled hypoxanthine in germinating A. nidulans conidia on PhZ | (A) PhZwt; (B-E) L124M, S133T, T392A and A418V mutants respectively.

[5] = substrate: O=c1[nH]cnc2nc[nH]c12; assay: as above; type: cell-based, Phanerodontia chrysosporium; details: 0.2 uM [3H]-hypoxanthine, 37 °C, minimal medium with nitrate, Km/i taken as equal to IC50 of unlabelled hypoxanthine; remark: listed apart in the source
Excerpt: inhibition of [3H]-hypoxanthine uptake by unlabelled hypoxanthine in germinating A. nidulans conidia on PhZ | Dose-response curves for hypoxanthine are shown.

| Molecule | % of initial uptake velocity with 1 mM competitor (PhZ [1]) | % of initial uptake velocity with 1 mM competitor (PhZ [2]) | Km [4] [µM] | further results |
| --- | --- | --- | --- | --- |
| Nc1nc2[nH]nnc2c(=O)[nH]1 [8-azaguanine] | L124M and S133T, show less [^3H]-hypoxanthine inhibition regarding PhZwt with all purines | the T392A and A418V mutants exhibited higher levels of inhibition | – | – |
| Nc1ncnc2[nH]cnc12 [adenine] | L124M and S133T, show less [^3H]-hypoxanthine inhibition regarding PhZwt with all purines | the T392A and A418V mutants exhibited higher levels of inhibition | – | – |
| Nc1nc2[nH]cnc2c(=O)[nH]1 [guanine] | L124M and S133T, show less [^3H]-hypoxanthine inhibition regarding PhZwt with all purines | the T392A and A418V mutants exhibited higher levels of inhibition | – | – |
| PhZ (Phanerodontia chrysosporium; L124M) (protein, full length, 578 amino acids, from cDNA; C-terminal GFP fusion kept; expressed at the azgA locus of Aspergillus nidulans deltaZAC (azgA, uapA, uapC deleted)) MPIALTHRINAFVADSPVGRWFHLEGSGHPKERVGSRFLTELRAGLTTWAAMAYIISVNASIISDTGGTCVCTQPDLCVNDETYLSCVADVRRDLITSTAAVSALASFLMGLLANLPVGMAPGMGLNAYFTYSVVGFHGSGIITYREALAAVFLEGWFFFFLSLLGLRQWLARIMPQSLVMAVGAGIGLFIAFIGLSGGGLGVIGGDTTNLVGLGGCLPQYYTSPDLPNYCASHVLQSPTMWLGIFVGGVFTVFLMLYRVKGAILIGIFLTSIISWPRPTSVTYFPHTDTGDQAFDFFKQVVTFRPLKRIGNALDYNYSNGRVWYALITFLYVDILDTTGTLYSMAKFAGLRDPVTLDFENSTIAYCVDAFSISMGALMGTSPVTAFIESATGISEGGKTGLTAITTGFAFFISVFFAPIFASIPSWATGGALVIVGSLMIRNVRDINWDYVGDSVPAFLTLIIIPLTYNIAYGVIAGIISFVLINGLAWALRKVSGERFAPPNYDASEPWVIPPGSIVPAWMRFIAGRTGLARDAARERPADADVLEMEQHAHDAASASSLGKHVPAVAEPVTEKDD | – | – | – | Km [3]: 1.6 ± 0.3 µM |
| PhZ (Phanerodontia chrysosporium; A418V) (protein, full length, 578 amino acids, from cDNA; C-terminal GFP fusion kept; expressed at the azgA locus of Aspergillus nidulans deltaZAC (azgA, uapA, uapC deleted)) MPIALTHRINAFVADSPVGRWFHLEGSGHPKERVGSRFLTELRAGLTTWAAMAYIISVNASIISDTGGTCVCTQPDLCVNDETYLSCVADVRRDLITSTAAVSALASFLMGLLANLPVGMAPGLGLNAYFTYSVVGFHGSGIITYREALAAVFLEGWFFFFLSLLGLRQWLARIMPQSLVMAVGAGIGLFIAFIGLSGGGLGVIGGDTTNLVGLGGCLPQYYTSPDLPNYCASHVLQSPTMWLGIFVGGVFTVFLMLYRVKGAILIGIFLTSIISWPRPTSVTYFPHTDTGDQAFDFFKQVVTFRPLKRIGNALDYNYSNGRVWYALITFLYVDILDTTGTLYSMAKFAGLRDPVTLDFENSTIAYCVDAFSISMGALMGTSPVTAFIESATGISEGGKTGLTAITTGFAFFISVFFVPIFASIPSWATGGALVIVGSLMIRNVRDINWDYVGDSVPAFLTLIIIPLTYNIAYGVIAGIISFVLINGLAWALRKVSGERFAPPNYDASEPWVIPPGSIVPAWMRFIAGRTGLARDAARERPADADVLEMEQHAHDAASASSLGKHVPAVAEPVTEKDD | – | – | 2.8 ± 0.4 | – |
| PhZ (Phanerodontia chrysosporium; S133T) (protein, full length, 578 amino acids, from cDNA; C-terminal GFP fusion kept; expressed at the azgA locus of Aspergillus nidulans deltaZAC (azgA, uapA, uapC deleted)) MPIALTHRINAFVADSPVGRWFHLEGSGHPKERVGSRFLTELRAGLTTWAAMAYIISVNASIISDTGGTCVCTQPDLCVNDETYLSCVADVRRDLITSTAAVSALASFLMGLLANLPVGMAPGLGLNAYFTYTVVGFHGSGIITYREALAAVFLEGWFFFFLSLLGLRQWLARIMPQSLVMAVGAGIGLFIAFIGLSGGGLGVIGGDTTNLVGLGGCLPQYYTSPDLPNYCASHVLQSPTMWLGIFVGGVFTVFLMLYRVKGAILIGIFLTSIISWPRPTSVTYFPHTDTGDQAFDFFKQVVTFRPLKRIGNALDYNYSNGRVWYALITFLYVDILDTTGTLYSMAKFAGLRDPVTLDFENSTIAYCVDAFSISMGALMGTSPVTAFIESATGISEGGKTGLTAITTGFAFFISVFFAPIFASIPSWATGGALVIVGSLMIRNVRDINWDYVGDSVPAFLTLIIIPLTYNIAYGVIAGIISFVLINGLAWALRKVSGERFAPPNYDASEPWVIPPGSIVPAWMRFIAGRTGLARDAARERPADADVLEMEQHAHDAASASSLGKHVPAVAEPVTEKDD | – | – | 2.1 ± 0.4 | – |
| PhZ (Phanerodontia chrysosporium; T392A) (protein, full length, 578 amino acids, from cDNA; C-terminal GFP fusion kept; expressed at the azgA locus of Aspergillus nidulans deltaZAC (azgA, uapA, uapC deleted)) MPIALTHRINAFVADSPVGRWFHLEGSGHPKERVGSRFLTELRAGLTTWAAMAYIISVNASIISDTGGTCVCTQPDLCVNDETYLSCVADVRRDLITSTAAVSALASFLMGLLANLPVGMAPGLGLNAYFTYSVVGFHGSGIITYREALAAVFLEGWFFFFLSLLGLRQWLARIMPQSLVMAVGAGIGLFIAFIGLSGGGLGVIGGDTTNLVGLGGCLPQYYTSPDLPNYCASHVLQSPTMWLGIFVGGVFTVFLMLYRVKGAILIGIFLTSIISWPRPTSVTYFPHTDTGDQAFDFFKQVVTFRPLKRIGNALDYNYSNGRVWYALITFLYVDILDTTGTLYSMAKFAGLRDPVTLDFENSTIAYCVDAFSISMGALMGTSPVTAFIESAAGISEGGKTGLTAITTGFAFFISVFFAPIFASIPSWATGGALVIVGSLMIRNVRDINWDYVGDSVPAFLTLIIIPLTYNIAYGVIAGIISFVLINGLAWALRKVSGERFAPPNYDASEPWVIPPGSIVPAWMRFIAGRTGLARDAARERPADADVLEMEQHAHDAASASSLGKHVPAVAEPVTEKDD | – | – | 2.3 ± 0.3 | – |
| PhZ (Phanerodontia chrysosporium) (protein, full length, 578 amino acids, from cDNA; C-terminal GFP fusion kept; expressed at the azgA locus of Aspergillus nidulans deltaZAC (azgA, uapA, uapC deleted)) MPIALTHRINAFVADSPVGRWFHLEGSGHPKERVGSRFLTELRAGLTTWAAMAYIISVNASIISDTGGTCVCTQPDLCVNDETYLSCVADVRRDLITSTAAVSALASFLMGLLANLPVGMAPGLGLNAYFTYSVVGFHGSGIITYREALAAVFLEGWFFFFLSLLGLRQWLARIMPQSLVMAVGAGIGLFIAFIGLSGGGLGVIGGDTTNLVGLGGCLPQYYTSPDLPNYCASHVLQSPTMWLGIFVGGVFTVFLMLYRVKGAILIGIFLTSIISWPRPTSVTYFPHTDTGDQAFDFFKQVVTFRPLKRIGNALDYNYSNGRVWYALITFLYVDILDTTGTLYSMAKFAGLRDPVTLDFENSTIAYCVDAFSISMGALMGTSPVTAFIESATGISEGGKTGLTAITTGFAFFISVFFAPIFASIPSWATGGALVIVGSLMIRNVRDINWDYVGDSVPAFLTLIIIPLTYNIAYGVIAGIISFVLINGLAWALRKVSGERFAPPNYDASEPWVIPPGSIVPAWMRFIAGRTGLARDAARERPADADVLEMEQHAHDAASASSLGKHVPAVAEPVTEKDD | – | – | – | Km [5]: 2.7 ± 0.2 µM |
